{
  "source": "patent US12306191B2",
  "about": "“Composition for diagnosis of degenerative neurological diseases” (KYUNGPOOK NATIONAL UNIVERSITY INDUSTRY—ACADEMIC COOPERATION …, priority 2018, dated 2025)",
  "key": {"APP/PS1 mice [1]": {"tested_on": "APP/PS1 mice", "test": "Immunofluorescence of microglia (Iba1) and astrocytes (GFAP) in brain cortex of injected APP/PS1 mice", "type": "in vivo, mouse", "conditions": "7-month-old APP/PS1 mice, i.p. daily 4 weeks, 5 mg/kg N-acetyl sphingosine, 1 mg/kg FTY720, 3 uM S1P; for microglia compared to APP/PS1 mice: FIG. 9a; for astrocytes compared to APP/PS1 mice: FIG. 9b", "protocol": "(§1) After the cerebrum and the hippocampus of a mouse were immobilized, anti-20G10 against amyloid-β (Aβ) 42 (mouse, 1:1000) and anti-G30 against Aβ 40 (rabbit, 1:1000), anti-MAP2 (chicken, 1:2000), anti-Synaptophysin (mouse, 1:100), anti-Synapsin1 (rabbit, 1:500), anti-PSD95 (mouse, 1:100), anti-Iba-1 (rabbit, 1:500), and anti-GFAP (rabbit, 1:500) were incubated together. The sites were analyzed using a confocal laser scanning microscope or an Olympus BX51 microscope equipped with Fluoview SV1000 imaging software (Olympus FV1000, Japan). Percentages of areas of the stained sites to an area of total tissues were quantified using Metamorph software (Molecular Devices).\n(§2) In order to measure neuroinflammatory resolution factor, nerve cells from the mouse's cerebrum were incubated and then treated with 10 nM N-acetyl sphingosine 1 phsosphate (Toronto Research chemicals, C262710) and N-acetyl sphingosine (Sigma, 01912) to prepare CM. For COX2 acetylation analysis, nerve cells were incubated from the mouse's cerebrum and treated with 2uCi [^14C] N-acetyl sphingosine (ARC, ARC1024) and then prepared. In addition, for an in vivo experiment, 5 mg/kg N-acetyl sphingosine (Sigma, 01912), 1 mg/kg FTY720, and 3 uM S1P were injected into 7-month-old APP/PS1 mice daily for 4 weeks through intraperitoneal injection.\nThe present inventors confirmed AD lesions by injecting N-acetyl sphingosine, one of COX2 acetylating agents identified through the above experiment, into an APP/PS1 animal model. First, in order to determine an effect of N-acetyl sphingosine on neuroinflammatory response by secreting the neuroinflammatory resolution factor, changes in microglia and astrocytes were observed. […] However, when sphingosine derivatives FTY720 and S1P were injected, there was no difference in the activity of microglia and astrocytes compared to the Alzheimer's animal model, and there was no effect of reducing Aβ deposition and improving memory (FIGS. 9a and 9b)."}, "APP/PS1 nerve cells": {"tested_on": "APP/PS1 nerve cells", "test": "Secretion of neuroinflammatory resolution factor in APP/PS1 nerve cells treated with COX2 acetylating agent", "type": "cell-based, mouse", "conditions": "10 nM, FIG. 8b", "protocol": "A commercially available ELISA kit (Biosource) was used, and the hemispheres of mice were homogenized and added in a buffer containing 0.02 M of guanidine to prepare a sample for Aβ ELISA. In order to measure neuroinflammatory resolution factor, nerve cells from the mouse cerebrum were incubated to prepare conditioned media (CM). Thereafter, according to the manufacturer's manual, ELISA for Aβ and SPM was performed.\nas §2\nFirst, in order to confirm whether the selected compounds promote the secretion of neuroinflammatory resolution factor in nerve cells, APP/PS1 nerve cells were treated with N-acetyl sphingosine 1 phsosphate or N-acetyl sphingosine, and then the expression levels of the neuroinflammatory resolution factor were confirmed. As a result, it was confirmed that the expression levels of LxA4 and RvE1 in nerve cells of APP/PS1 mice were recovered when treated with N-acetyl sphingosine 1 phsosphate or N-acetyl sphingosine (FIG. 8b)."}, "COX2 [2]": {"tested_on": "COX2", "test": "COX2 acetylation analysis with [14C] N-acetyl sphingosine", "type": "cell-based, mouse", "conditions": "2uCi [14C] N-acetyl sphingosine; FIG. 8c", "protocol": "as §2"}, "COX2 [3]": {"biological_target": "T1, COX2 (Homo sapiens, UniProt P35354)", "T1 sequence (P35354 18-604)": "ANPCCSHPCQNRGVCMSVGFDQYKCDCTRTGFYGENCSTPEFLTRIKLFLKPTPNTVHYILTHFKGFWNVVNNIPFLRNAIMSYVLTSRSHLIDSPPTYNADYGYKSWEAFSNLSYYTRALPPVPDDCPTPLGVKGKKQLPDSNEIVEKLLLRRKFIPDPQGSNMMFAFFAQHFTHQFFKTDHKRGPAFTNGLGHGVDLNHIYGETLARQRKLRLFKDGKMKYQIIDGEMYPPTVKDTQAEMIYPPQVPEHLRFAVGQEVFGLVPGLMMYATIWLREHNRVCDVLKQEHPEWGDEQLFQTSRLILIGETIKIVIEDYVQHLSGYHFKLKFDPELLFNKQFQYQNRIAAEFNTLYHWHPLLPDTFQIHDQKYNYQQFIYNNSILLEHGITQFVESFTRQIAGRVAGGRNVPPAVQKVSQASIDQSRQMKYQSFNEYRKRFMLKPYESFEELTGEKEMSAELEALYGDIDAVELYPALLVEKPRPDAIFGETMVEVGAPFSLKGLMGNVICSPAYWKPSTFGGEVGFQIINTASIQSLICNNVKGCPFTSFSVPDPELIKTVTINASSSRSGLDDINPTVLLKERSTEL", "test": "LC-MS/MS identification of the acetylation site of COX2", "type": "biochemical", "conditions": "FIG. 8d", "protocol": "To confirm an acetylation site of COX2, a COX2 enzyme was precipitated with trichroloacetic acid (Merck) and dried. The dried extract was resuspended in 10 μL of a 5 M urea solution, and a 0.1 M ammonium bicarbonate buffer was incubated at 37° C. with 1 μg trypsin (Promega) for 16 hours. Thereafter, the sample was treated with 1 M DTT (GE Healthcare) at room temperature for 1 hour and then alkylated with 1M iodoacetamide (Sigma) for 1 hour. A protein sample was loaded onto a ZORBAX 300SB-C18 column for sequencing. Peptides were identified with BioTools 3.2 SR5 (Bruker Daltonics).\nIn addition, it was confirmed that serine 565 (S565) for a peptide 560-[…]-575 of COX2 was acetylated in the presence of N-acetyl sphingosine (FIG. 8d)."}, "APP/PS1 mice [4]": {"tested_on": "APP/PS1 mice", "test": "Thioflavin S staining of Aβ plaques in brain of injected APP/PS1 mice", "type": "in vivo, mouse", "conditions": "7-month-old APP/PS1 mice, i.p. daily 4 weeks; 5 mg/kg N-acetyl sphingosine, 1 mg/kg FTY720, 3 uM S1P; FIG. 9c", "protocol": "as §1\nas §2, with “injection. […]” for “injection.”"}, "APP/PS1 mice [5]": {"tested_on": "APP/PS1 mice", "test": "Morris Water Maze test of injected APP/PS1 mice", "type": "in vivo, mouse", "conditions": "7-month-old APP/PS1 mice, i.p. daily 4 weeks; 5 mg/kg N-acetyl sphingosine, 1 mg/kg FTY720, 3 uM S1P; FIG. 9d", "protocol": "In order to confirm potential effects on learning and memory, Morris water maze (MWM) and fear conditioning tests were performed. In the MWM, the mouse learned a task 4 times a day for 10 days, a platform was removed on day 11, and a probe trial was performed. In the fear conditioning, on day 1, the mouse was added in a conditioning chamber, and sound stimulation (10 kHz, 70 dB) and electrical stimulation (0.3 mA, 1 s) were applied. On day 2, the memory on a space was confirmed without stimulation in the same conditioning chamber as day 1, and on day 3, a memory test for fear was performed when only the sound stimulation was applied in another conditioning chamber. An open field test was performed to evaluate motor ability and immediate activity. In the open field test, the mouse was placed in a quadrangular box for 10 minutes and then overall motor ability and time and distances were measured.\nIn order to measure neuroinflammatory resolution factor, nerve cells from the mouse's cerebrum were incubated and then treated with 10 nM N-acetyl sphingosine 1 phsosphate (Toronto Research chemicals, C262710) and N-acetyl sphingosine (Sigma, 01912) to prepare CM. For COX2 acetylation analysis, nerve cells were incubated from the mouse's cerebrum and treated with 2uCi [^14C] N-acetyl sphingosine (ARC, ARC1024) and then prepared. […]"}, "COX2 [6]": {"biological_target": "T1, COX2", "test": "Western blot of recombinant COX2 protein with ac-S565 antibody after aspirin or N-AS treatment", "type": "biochemical", "conditions": "FIG. 10", "protocol": "(§3) In addition, a Western blot sample was prepared by reacting a recombinant COX2 protein with aspirin and N-acetyl sphingosine (Sigma, 01912, N-AS). In addition, microglia were isolated from the cerebra of wild-type and APP/PS1 9-month-old mice to prepare a Western blot sample, and microglia (Applied Biologics Materials, USA) were incubated with amyloid beta, and then a Western blot sample was prepared. The prepared Western blot sample was subjected to electrophoresis on a polyacrylamide gel to isolate proteins, transferred to a nitrocellulose filter, and then bound with anti-ac-S565 (rabbit, 1:500), anti-COX2 (rabbit, 1:1,000, Abcam), and anti-actin (mouse, 1:1,000, Santa Cruz) antibodies, and then bands were shaped using secondary antibodies, and quantified and analyzed using ImageJ (National Institutes of Health, USA)."}, "SphK1": {"biological_target": "SphK1 (Homo sapiens, UniProt Q9NYA1)", "sequence (Q9NYA1 whole entry, species assumed)": "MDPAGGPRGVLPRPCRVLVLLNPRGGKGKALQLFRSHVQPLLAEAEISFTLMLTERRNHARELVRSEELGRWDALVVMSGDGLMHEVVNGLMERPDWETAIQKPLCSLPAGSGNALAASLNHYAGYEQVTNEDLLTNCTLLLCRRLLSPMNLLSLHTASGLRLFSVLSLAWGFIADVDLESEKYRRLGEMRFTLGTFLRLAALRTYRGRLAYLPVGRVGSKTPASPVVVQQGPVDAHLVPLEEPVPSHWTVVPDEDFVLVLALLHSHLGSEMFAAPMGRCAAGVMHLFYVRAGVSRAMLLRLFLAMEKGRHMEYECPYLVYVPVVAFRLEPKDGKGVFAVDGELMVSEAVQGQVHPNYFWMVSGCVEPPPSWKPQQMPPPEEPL", "conditions": "read-out: KM of acetyl group binding to SphK1; in the presence of 10 mM sphingosine; FIG. 1a"}, "human-derived microglia [7]": {"tested_on": "human-derived microglia", "test": "Fluorescence immunostaining of COX2 and ac-S565 in human-derived microglia treated with amyloid beta", "type": "cell-based", "conditions": "FIGS. 13a, 13b", "protocol": "In addition, cerebral tissues of wild-type and APP/PS1 9-month-old mice and human-derived microglia were incubated together with anti-ac-S565 (rabbit, 1:100), anti-COX2 (mouse, 1:500, Thermo Fisher Scientific), and anti-Iba1 (goat, 1:500, Abcam). In the cerebral tissues and the human-derived microglia, percentages of cells stained with anti-ac-S565, anti-COX2 and anti-Iba1 among cells stained with anti-COX2 and anti-Iba1 were quantified and analyzed using MetaMorph (Molecular Devices, USA).\nThe present inventors created a neuroinflammatory environment by treating human-derived microglia with amyloid beta, and then confirmed the level of S565 acetylation of COX2 through fluorescence immunostaining."}, "human-derived microglia [8]": {"tested_on": "human-derived microglia", "test": "Western blotting of COX2 and ac-S565 in human-derived microglia treated with amyloid beta", "type": "cell-based", "conditions": "FIGS. 14a, 14b", "protocol": "as §3\nThe present inventors created a neuroinflammatory environment by treating human-derived microglia with amyloid beta, and then reconfirmed the level of S565 acetylation of COX2 through Western blotting."}},
  "data": [
    {"molecule": "CCCCCCCCc1ccc(CCC(N)(CO)CO)cc1", "note": "[FTY720]", "values": [
      {"measurement": "microglia compared to APP/PS1 mice", "setting": "APP/PS1 mice [1]", "value": "no difference"},
      {"measurement": "astrocytes compared to APP/PS1 mice", "setting": "APP/PS1 mice [1]", "value": "no difference"}
    ]},
    {"molecule": "CCCCCCCCCCCCC/C=C/[C@@H](O)[C@H](COP(=O)(O)O)NC(C)=O", "note": "[N-acetyl sphingosine 1 phsosphate]", "values": [
      {"measurement": "expression level of LxA4", "setting": "APP/PS1 nerve cells", "value": "recovered"},
      {"measurement": "expression level of RvE1", "setting": "APP/PS1 nerve cells", "value": "recovered"}
    ]},
    {"molecule": "CCCCCCCCCCCCC/C=C/[C@@H](O)[C@H](CO)NC(C)=O", "note": "[N-acetyl sphingosine]", "values": [
      {"measurement": "expression level of LxA4", "setting": "APP/PS1 nerve cells", "value": "recovered"},
      {"measurement": "expression level of RvE1", "setting": "APP/PS1 nerve cells", "value": "recovered"},
      {"measurement": "COX2 acetylation compared with sample mixed with SphK1, acetyl-CoA and sphingosine", "setting": "COX2 [2]", "value": "more acetylation"},
      {"measurement": "acetylation of serine 565 (S565) of COX2 peptide 560-575", "setting": "COX2 [3]", "value": "acetylated"},
      {"measurement": "microglia compared to APP/PS1 mice", "setting": "APP/PS1 mice [1]", "value": "remarkable decrease"},
      {"measurement": "astrocytes compared to APP/PS1 mice", "setting": "APP/PS1 mice [1]", "value": "remarkable decrease"},
      {"measurement": "amount of Aβ / Aβ deposition compared to APP/PS1 mice", "setting": "APP/PS1 mice [4]", "value": "significantly lowered"},
      {"measurement": "memory and cognition", "setting": "APP/PS1 mice [5]", "value": "improved"},
      {"measurement": "ac-S565 band of treated COX2 in Western blot (S565 acetylation)", "setting": "COX2 [6]", "value": "strongly shown"}
    ]},
    {"molecule": "CCCCCCCCCCCCC/C=C/[C@@H](O)[C@@H](N)COP(=O)(O)O", "note": "[S1P, sphingosine-1-phosphate]", "values": [
      {"measurement": "microglia compared to APP/PS1 mice", "setting": "APP/PS1 mice [1]", "value": "no difference"},
      {"measurement": "astrocytes compared to APP/PS1 mice", "setting": "APP/PS1 mice [1]", "value": "no difference"},
      {"measurement": "amount of Aβ / Aβ deposition compared to APP/PS1 mice", "setting": "APP/PS1 mice [4]", "value": "no effect"},
      {"measurement": "memory and cognition", "setting": "APP/PS1 mice [5]", "value": "no effect"}
    ]},
    {"molecule": "CC(=O)SCCNC(=O)CCNC(=O)[C@H](O)C(C)(C)COP(=O)(O)OP(=O)(O)OC[C@H]1O[C@@H](n2cnc3c(N)ncnc32)[C@H](O)[C@@H]1OP(=O)(O)O", "note": "[acetyl-CoA]", "values": [
      {"measurement": "Km", "setting": "SphK1", "value": 58.2, "unit": "µM"}
    ]},
    {"molecule": "CC(=O)Oc1ccccc1C(=O)O", "note": "[aspirin]", "values": [
      {"measurement": "ac-S565 band of treated COX2 in Western blot (S565 acetylation)", "setting": "COX2 [6]", "value": "hardly detected"}
    ]},
    {"molecule": "amyloid beta: amyloid beta used to treat human-derived microglia to create a neuroinflammatory environment", "values": [
      {"measurement": "S565 acetylation of COX2 in microglia", "setting": "human-derived microglia [7]", "value": "decreased"},
      {"measurement": "expression of COX2 in microglia", "setting": "human-derived microglia [7]", "value": "increased"},
      {"measurement": "S565 acetylation of COX2 in microglia", "setting": "human-derived microglia [8]", "value": "decreased"},
      {"measurement": "expression of COX2 in microglia", "setting": "human-derived microglia [8]", "value": "increased"}
    ]}
  ]
}
